Results taken from patent publication US20130217735A1, “FUNGICIDAL COMPOSITIONS AND METHODS OF USE” (Agri-Food and BioSciences Institute, priority 2010, published 2013).
Like-named read-outs stand apart in the source and are kept apart here.

How the values were obtained:
P. erythroseptica [1] = test: Example 8 sensitivity testing of potato tuber pathogens to imazalil derivatives (EC50); type: cell-based, Phytophthora erythroseptica; settings: for EC50: Trial B, read-out: EC50 (concentration required to reduce mycelial growth by 50%)
Protocol: (§1) For tests with imazalil sulphate and imazalilium docusate prepared according to Trial B, imazalil sulphate (0.5 g, drug pure, Janssen) was dissolved in sterile water (100 ml) to give a stock solution (12.7 mM). […] Dilutions (alternately five-fold and two-fold) of each of these stock solutions were prepared (in water for imazalil sulphate and in ethanol for imazalilium docusate) to produce a dilution series (12.7, 2.54, 1.27, 0.25, and 0.13 mM).
(§2) Log-probability plots of the percentage reduction in growth against the concentration were used to estimate EC50 values (the concentration required to reduce mycelial growth by 50%) (see Table 6).

Phoma foveata [2] = test: as above; type: cell-based; settings: isolate Phoma foveata BL2/5 T3, Trial B, read-out: EC50 (concentration required to reduce mycelial growth by 50%)
Protocol: as §1, §2

Phoma exigua [3] = test: as above; type: cell-based; settings: isolate Phoma exigua 9.1; Trial B; read-out: EC50 (concentration required to reduce mycelial growth by 50%)
Protocol: as §1, §2

F. coeruleum [4] = test: as above; type: cell-based; settings: isolate F. coeruleum ex B7/06 T8; Trial B; read-out: EC50 (concentration required to reduce mycelial growth by 50%)
Protocol: as §1, §2

F. sambucinum [5] = test: as above; type: cell-based; settings: Trial B, read-out: EC50 (concentration required to reduce mycelial growth by 50%)
Protocol: as §1, §2

F. culmorum [6] = test: as above; type: cell-based; settings: isolate F. culmorum P13, Trial B, read-out: EC50 (concentration required to reduce mycelial growth by 50%)
Protocol: as §1, §2

[7] = Thermogravimetric analysis (thermal stability); type: physicochemical; settings: TGA under nitrogen, 5° C./min
Protocol: Thermogravimetric analysis was performed on a Mettler Toledo Star^e TGA/DSC (Leicester, UK) under nitrogen. Samples between 5 and 10 mg were placed in open alumina pans and were heated from 25° C. to 600° C. with a heating rate of 5° C./min. Decomposition temperatures (T5% dec) were reported from onset to 5 wt % mass loss Infrared spectra were recorded as neat samples from 4000-450 cm^−1 on a Perkin-Elmer Spectrum 65 FT-IR spectrometer fitted with a Universal ATR Sampling Accessory. Differential scanning calorimetry (DSC) was performed on a Mettler Toledo Star^e DSC (Leicester, UK) under nitrogen. Samples between 5 and 10 mg were heated from 25° C. to 110° C. at a heating rate of 5° C./min followed by a 5 min isotherm. A cooling rate of 5° C./min to −70° C. was followed by a 5 min isotherm at −70° C., and the cycle was repeated twice. A melting transition was observed as single-event peak in the first run. […] Transitions above ambient temperature were confirmed optically on a Stuart SMP3 melting point apparatus.

[8] = test system: Phytophthora erythroseptica; test: Example 7 sensitivity testing of potato tuber pathogens to thiabendazole derivatives; type: cell-based; settings: for Inhibition (%) of mycelial growth: Trial B
Protocol: (§3) In vitro tests of the IL thiabendazolium docusate were performed in comparison to the neutral fungicide using selected isolates of Fusarium spp., the cause of potato dry rot. F. coeruleum and F. culmorum are sensitive to thiabendazole whereas isolates of F. sambucinum are frequently resistant. Isolates of Phoma spp., the cause of gangrene, and Phytophthora erythroseptica, the cause of pink rot, were also tested. All except F. sambucinum ex SASA were isolated in a laboratory. F. sambucinum ex SASA was supplied by SASA (Science and Advice for Scottish Agriculture, Roddinglaw Road, Edinburgh, EH12 9F, UK).
(§4) In each test three replicate plates for each organism per concentration were used and tests were repeated at least once.

P. foveata = test: Example 5 agar plate mycelial growth test of TBZ derivatives; settings: isolate P. foveata BL2 05 T3, Trial A
Protocol: (§5) Both TBZ docusate and TBZ stearate were tested at final concentrations of 250 μm and 25 μm in agar. To prepare the TBZ docusate stock solution for 250 μm, 0.155 g of TBZ docusate prepared according to Trial A was added to a 10 mL volumetric flask and was dissolved in 10 mL of ethanol. The solution was mixed thoroughly. To prepare the TBZ docusate stock solution for 25 μm, 1 ml of the above stock solution was pipetted into a second 10 mL flask and 10 mL ethanol was added. The solution was mixed thoroughly. To prepare the TBZ stearate stock solution for 250 μm, 0.121 g of TBZ stearate was added to a 10 mL volumetric flask and was dissolved in 10 mL ethanol. The solution was mixed thoroughly. To prepare the TBZ stearate stock solution for 25 μm, 1 mL of the 250 μm TBZ stearate stock solution was pipetted into a second 10 mL flask and 10 mL ethanol was added. The solution was mixed thoroughly.
(§6) The agar was prepared and autoclaved. Potato dextrose agar (PDA) was used for the Fusarium species and Phytophthora erythroseptica and malt agar was used for the Phoma species. The agar was allowed to cool to 50° C. Each of the stock solutions was added to the agar at the rate of 10 mL stock solution per liter of agar to give the two final concentrations, for both TBZ stearate and docusate, in agar. Also prepared were a 1% ethanol control (10 mL per liter of agar) and an untreated agar as a second control. The plates were prepared in triplicate for each concentration.
(§7) For each pathogen isolate tested, 3 plates of 250 μm/1, 3 plates of 25 μm/1, 3 plates of 1% ethanol, and 3 plates of untreated agar were inoculated using an agar plug cut with a no. 3 cork borer from the margin of an actively-growing culture on agar. The plates were incubated at an appropriate temperature (usually 18-20° C.) in darkness. The growth rate was monitored and assessed after 5-7 days. The growth was assessed by measuring colony diameters minus plug (two measurements at right-angles) per plate. The percent reduction was calculated with respect to the control.
(§8) Pure thiabendazole (TBZ; 0.5 g) obtained from MSD Agvet (Rahway, N.J.) was dissolved in water (10 mL) by adding the minimum required volume (c. 0.5 mL) of hypophosphorous acid and heating gently with stirring, then made up to 100 mL with water to give a stock solution (25 mM). TBZ docusate (0.155 g) or TBZ stearate (0.121 g) was dissolved in ethanol (100 ml) to give stock solutions (25 mM). A ten-fold dilution of each of these stock solutions was prepared (in water for TBZ and in ethanol for TBZ docusate and stearate). […] In addition, agar with 1% v/v ethanol and unamended agar was prepared (ethanol and unamended controls). The agar was poured into Petri plates (9 cm) and allowed to set.
(§9) Isolates of the appropriate potato tuber pathogens were grown on PDA for Fusarium spp. and Phytophthora erythroseptica or on MA for Phoma spp. Each isolate to be tested was inoculated onto three replicate plates of the two concentrations of each compound and onto ethanol and unamended agar controls using plugs (6 mm diameter) cut from the margins of actively growing cultures. Plates were incubated in darkness at 20° C. and mycelial growth measured (two measurements at right-angles for each plate) after 5-7 days (depending on the growth rates).

P. exigua = test: as above; settings: isolate P. exigua 9.1, Trial A
Protocol: as §5, §6, §7, §8, §9

F. sulphureum = test: as above; settings: isolate F. sulphureum ex SASA, 5-7 days, TBZ docusate Trial A
Protocol: as §5, §6, §7, §8, §9

Phoma foveata [9] = test: Example 7 sensitivity testing of potato tuber pathogens to thiabendazole derivatives; type: cell-based; settings: isolate Phoma foveata BL2 05 T3, Trial B
Protocol: as §3, §4

Phoma exigua [10] = test: as above; type: cell-based; settings: isolate Phoma exigua 9.1, Trial B
Protocol: as §3, §4

F. coeruleum [11] = test: as above; type: cell-based; settings: Trial B
Protocol: as §3, §4

F. sambucinum [12] = test: as above; type: cell-based; settings: Trial B
Protocol: as §3, §4

F. culmorum [13] = test: as above; type: cell-based; settings: isolate F. culmorum P13, Trial B
Protocol: as §3, §4

F. coeruleum [14] = test: Example 5 agar plate mycelial growth test of TBZ derivatives; settings: isolate F. coeruleum ex B7/06 T8, Trial A
Protocol: as §5, §6, §7, §8, §9

P. erythroseptica [15] = test: as above; settings: isolate P. erythroseptica BL2/08 P31, Trial A
F. culmorum [16] = test: as above; type: cell-based; settings: isolate F. culmorum P13, Trial A
[17] = isolate P. erythroseptica BL2/08 P31

Question: For C=CCOC(Cn1ccnc1)c1ccc(Cl)cc1Cl (centres unmarked) [Imazalil, imazalil, reference compound], which EC50 (P. erythroseptica [1]; Phytophthora erythroseptica, isolate P. erythroseptica Rooster Eire) is on record?
Answer: > 127 µM

Question: And the EC50 (P. erythroseptica [1]; [17])?
Answer: > 127 µM

Question: And the EC50 (Phoma foveata [2]; Boeremia foveata)?
Answer: 2.7 µM

Question: And the EC50 (Phoma exigua [3])?
Answer: 5.6 µM

Question: What about the EC50 (F. coeruleum [4]) of the same molecule?
Answer: 12.9 µM

Question: What about the EC50 (F. sambucinum [5]; Fusarium sambucinum, isolate F. sambucinum L'gall 11) of the same molecule?
Answer: 1.8 µM

Question: What about the EC50 (F. sambucinum [5]; Fusarium sambucinum, isolate F. sambucinum ex SASA, log-probability plot) of the same molecule?
Answer: 0.7 µM

Question: What about the EC50 (F. culmorum [6]; Fusarium culmorum) of the same molecule?
Answer: 0.4 µM

Question: For C=CCOC(Cn1ccnc1)c1ccc(Cl)cc1Cl (centres unmarked) [Imazalilium docusate, imazalilium docusate], which “T5% onset (decomposition temperature, onset to 5 wt % mass loss)” value [7] is on record?
Answer: 208.8 °C

Question: And the “activity against P. erythroseptica” value (P. erythroseptica [1]; in words, Table 6)?
Answer: showed some activity

Question: And the EC50 (P. erythroseptica [1]; [17])?
Answer: 38.4 µM

Question: And the EC50 (P. erythroseptica [1]; isolate P. erythroseptica Rooster Eire)?
Answer: 100 µM

Question: What about the EC50 (Phoma foveata [2]) of the same molecule?
Answer: 4.6 µM

Question: What about the EC50 (Phoma exigua [3]) of the same molecule?
Answer: 7.3 µM

Question: And the EC50 (F. coeruleum [4])?
Answer: 19.2 µM

Question: What about the EC50 (F. sambucinum [5]; isolate F. sambucinum L'gall 11) of the same molecule?
Answer: 2.6 µM

Question: And the EC50 (F. sambucinum [5]; isolate F. sambucinum ex SASA, log-probability plot)?
Answer: 1 µM

Question: And the EC50 (F. culmorum [6])?
Answer: 0.4 µM

Question: For c1ccc2[nH]c(-c3cscn3)nc2c1 [TBZ docusate, thiabendazolium docusate], which “T5% onset (decomposition temperature, onset to 5 wt % mass loss)” value [7] is on record?
Answer: 252.0 °C

Question: And the “activity against P. erythroseptica compared with thiabendazole alone” value ([8]; in words, Table 5)?
Answer: more active

Question: For CCn1cc[n+](C)c1.CCn1cc[n+](C)c1.S=C([S-])NCCNC(=S)[S-] [[C2mim]2ebdtc, di(1-ethyl-3-methylimidazolium)ethylenbis-(dithiocarbamate)], which “T5% onset (decomposition temperature, onset to 5 wt % mass loss)” value [7] is on record?
Answer: 147.1

Question: Which “Inhibition (%) of mycelial growth” value (P. foveata; 25 μM in agar) does the source give for thiabendazolium docusate [TBZ docusate] here?
Answer: 95%

Question: And the “Inhibition (%) of mycelial growth” value (P. foveata; 250 μM in agar)?
Answer: 99%

Question: What about the “Inhibition (%) of mycelial growth” value (P. exigua; 25 μM in agar) of the same molecule?
Answer: 90%

Question: And the “Inhibition (%) of mycelial growth” value (P. exigua; 250 μM in agar)?
Answer: 98%

Question: What about the “Inhibition (%) of mycelial growth” value (F. sulphureum; 25 μM in agar) of the same molecule?
Answer: 27%

Question: And the “Inhibition (%) of mycelial growth” value (F. sulphureum; 250 μM in agar)?
Answer: 97%

Question: And the “Inhibition (%) of mycelial growth” value (Phoma foveata [9]; 25 μM in agar)?
Answer: 95%

Question: And the “Inhibition (%) of mycelial growth” value (Phoma foveata [9]; 250 μM in agar)?
Answer: 99%

Question: What about the “Inhibition (%) of mycelial growth” value ([8]; isolate Phytophthora erythroseptica BL2/08 P31, 25 μM in agar) of the same molecule?
Answer: 33%

Question: And the “Inhibition (%) of mycelial growth” value ([8]; isolate Phytophthora erythroseptica BL2/08 P31, 250 μM in agar)?
Answer: 97%

Question: And the “Inhibition (%) of mycelial growth” value ([8]; isolate Phytophthora erythroseptica Rooster Eire, 25 μM in agar)?
Answer: 11%

Question: And the “Inhibition (%) of mycelial growth” value ([8]; isolate Phytophthora erythroseptica Rooster Eire, 250 μM in agar)?
Answer: 91%

Question: And the “Inhibition (%) of mycelial growth” value (Phoma exigua [10]; 25 μM in agar)?
Answer: 94%

Question: What about the “Inhibition (%) of mycelial growth” value (Phoma exigua [10]; 250 μM in agar) of the same molecule?
Answer: 99%

Question: And the “Inhibition (%) of mycelial growth” value (F. coeruleum [11]; isolate F. coeruleum ex B7/06 T8, 25 μM in agar)?
Answer: 99%

Question: And the “Inhibition (%) of mycelial growth” value (F. coeruleum [11]; isolate F. coeruleum ex B7/06 T8, 250 μM in agar)?
Answer: 99%

Question: And the “Inhibition (%) of mycelial growth” value (F. coeruleum [11]; isolate F. coeruleum ex B16/08 P31, 25 μM in agar)?
Answer: 100%

Question: And the “Inhibition (%) of mycelial growth” value (F. coeruleum [11]; isolate F. coeruleum ex B16/08 P31, 250 μM in agar)?
Answer: 100%

Question: And the “Inhibition (%) of mycelial growth” value (F. sambucinum [12]; isolate F. sambucinum L'gall 11, 25 μM in agar)?
Answer: 19%

Question: What about the “Inhibition (%) of mycelial growth” value (F. sambucinum [12]; isolate F. sambucinum L'gall 11, 250 μM in agar) of the same molecule?
Answer: 83%

Question: And the “Inhibition (%) of mycelial growth” value (F. sambucinum [12]; isolate F. sambucinum L'gall 53, 25 μM in agar)?
Answer: 11%

Question: And the “Inhibition (%) of mycelial growth” value (F. sambucinum [12]; isolate F. sambucinum L'gall 53, 250 μM in agar)?
Answer: 68%

Question: What about the “Inhibition (%) of mycelial growth” value (F. sambucinum [12]; isolate F. sambucinum ex SASA, 25 μM in agar) of the same molecule?
Answer: 19%

Question: What about the “Inhibition (%) of mycelial growth” value (F. sambucinum [12]; isolate F. sambucinum ex SASA, 250 μM in agar, vs 1% ethanol control) of the same molecule?
Answer: 96%

Question: And the “Inhibition (%) of mycelial growth” value (F. culmorum [13]; 25 μM in agar)?
Answer: 100%

Question: And the “Inhibition (%) of mycelial growth” value (F. culmorum [13]; 250 μM in agar)?
Answer: 100%

Question: What about the “Inhibition (%) of mycelial growth” value (F. coeruleum [14]; 25 μM in agar) of the same molecule?
Answer: 98%

Question: And the “Inhibition (%) of mycelial growth” value (F. coeruleum [14]; 250 μM in agar)?
Answer: 98%

Question: What about the “Inhibition (%) of mycelial growth” value (P. erythroseptica [15]; 25 μM in agar) of the same molecule?
Answer: 62%

Question: What about the “Inhibition (%) of mycelial growth” value (P. erythroseptica [15]; 250 μM in agar) of the same molecule?
Answer: 100%

Question: What about the “Inhibition (%) of mycelial growth” value (F. culmorum [16]; 25 μM in agar) of the same molecule?
Answer: 100%

Question: And the “Inhibition (%) of mycelial growth” value (F. culmorum [16]; 250 μM in agar)?
Answer: 100%
